From US10308650B2, “Pesticidally active tetracyclic derivatives with sulfur containing substituents” (Syngenta Participations AG, priority 2014, dated 2019)

Legend:
Format in all cases: in vivo
[1] = test system: Plutella xylostella (Diamond Back Moth); assay: Activity against Plutella xylostella; details: 120 h, application rate of 200 ppm, artificial diet, L2 larvae, 5 days after infestation, read-out: effect in at least one of the two categories (mortality or growth inhibition)
Procedure: Example B8: Activity Against Plutella xylostella (Diamond Back Moth)
(§1) 24-well microtiter plates with artificial diet were treated with aqueous test solutions prepared from 10,000 ppm DMSO stock solutions by pipetting. After drying, the plates were infested with L2 larvae (10 to 15 per well). The samples were assessed for mortality and growth inhibition in comparison to untreated samples 5 days after infestation.

[2] = test system: Diabrotica balteata (Corn Root Worm); assay: Activity against Diabrotica balteata; details: 96 h, application rate of 200 ppm, maize sprouts, L2 larvae, 4 days after infestation, read-out: effect in at least one of the two categories (mortality or growth inhibition)
Procedure: Example B2: Activity Against Diabrotica balteata (Corn Root Worm)
as §1, with “Maize sprouts placed onto an agar layer in 24-well” for “24-well”, “plates” for “plates with artificial diet”, “spraying.” for “pipetting.”, “(6” for “(10”, “10” for “15”, “4” for “5”

[3] = test system: Spodoptera littoralis (Egyptian Cotton Leaf Worm); assay: Activity against Spodoptera littoralis (cotton leaf discs, spray); details: foliar, 72 h, application rate of 200 ppm, cotton leaf discs, L1 larvae, 3 days after infestation, read-out: control (mortality, anti-feeding effect, growth inhibition)
Procedure: Example B9: Activity Against Spodoptera littoralis (Egyptian Cotton Leaf Worm)
Cotton leaf discs were placed onto agar in 24-well microtiter plates and sprayed with aqueous test solutions prepared from 10,000 ppm DMSO stock solutions. After drying the leaf discs were infested with five L1 larvae. The samples were assessed for mortality, anti-feeding effect, and growth inhibition in comparison to untreated samples 3 days after infestation. Control of Spodoptera littoralis by a test sample is given when at least one of the categories mortality, anti-feedant effect, and growth inhibition is higher than the untreated sample.

[4] = test system: Euschistus heros (Neotropical Brown Stink Bug); assay: Activity against Euschistus heros; details: 120 h, application rate of 200 ppm, soybean leaves, N2 nymphs, 5 days after infestation, read-out: effect in at least one of the two categories (mortality or growth inhibition)
Procedure: Example B3: Activity Against Euschistus heros (Neotropical Brown Stink Bug)
Soybean leaves on agar in 24-well microtiter plates were sprayed with aqueous test solutions prepared from 10,000 ppm DMSO stock solutions. After drying the leaves were infested with N2 nymphs. The samples were assessed for mortality and growth inhibition in comparison to untreated samples 5 days after infestation.

[5] = test system: Bemisia tabaci (Cotton White Fly); assay: Activity against Bemisia tabaci: feeding/contact activity; details: foliar, 144 h, application rate of 200 ppm, cotton leaf discs, adult white flies, 6 days after incubation
Procedure: Example B1: Activity Against Bemisia tabaci (Cotton White Fly): Feeding/Contact Activity
Cotton leaf discs were placed on agar in 24-well microtiter plates and sprayed with aqueous test solutions prepared from 10,000 ppm DMSO stock solutions. After drying the leaf discs were infested with adult white flies. The samples were checked for mortality 6 days after incubation.

[6] = test system: Spodoptera littoralis (Egyptian Cotton Leaf Worm); assay: Activity against Spodoptera littoralis (lettuce, uptake by the roots from agar); details: 144 h, test rate of 12.5 ppm, lettuce grown on treated agar, Spodoptera eggs, 6 days after infestation, read-out: effect in at least one of the three categories (mortality, anti-feeding, or growth inhibition)
From the text: Example B10: Activity Against Spodoptera littoralis (Egyptian Cotton Leaf Worm)
Test compounds were applied by pipette from 10,000 ppm DMSO stock solutions into 24-well plates and mixed with agar. Lettuce seeds were placed onto the agar and the multi well plate was closed by another plate which contained also agar. After 7 days the compound was absorbed by the roots and the lettuce grew into the lid plate. The lettuce leaves were then cut off into the lid plate. Spodoptera eggs were pipetted through a plastic stencil onto a humid gel blotting paper and the lid plate was closed with it. The samples were assessed for mortality, anti-feedant effect and growth inhibition in comparison to untreated samples 6 days after infestation.

[7] = test system: Myzus persicae (Green Peach Aphid); assay: Activity against Myzus persicae: feeding/contact activity; details: foliar, 144 h, application rate of 200 ppm, sunflower leaf discs, aphid population of mixed ages, 6 days after infestation, read-out: mortality
Procedure: Example B5: Activity Against Myzus persicae (Green Peach Aphid): Feeding/Contact Activity
Sunflower leaf discs were placed onto agar in a 24-well microtiter plate and sprayed with aqueous test solutions prepared from 10,000 ppm DMSO stock solutions. After drying, the leaf discs were infested with an aphid population of mixed ages. The samples were assessed for mortality 6 days after infestation.

[8] = test system: Myzus persicae (Green Peach Aphid); assay: Activity against Myzus persicae: systemic activity; details: 144 h, test rate of 24 ppm, roots of infested pea seedlings in test solution, 6 days, read-out: mortality
Procedure: Example B6: Activity Against Myzus persicae (Green Peach Aphid). Systemic Activity
Roots of pea seedlings infested with an aphid population of mixed ages were placed directly into aqueous test solutions prepared from 10,000 DMSO stock solutions. The samples were assessed for mortality 6 days after placing seedlings into test solutions.

CCS(=O)(=O)c1cc2nc(-c3ccccc3)[nH]c2cc1-c1nc2cc(C(F)(F)F)ncc2n1C [Compound A16, 2-(6-ethylsulfonyl-2-phenyl-3H-benzimidazol-5-yl)-3-methyl-6-(trifluoromethyl)imidazo[4,5-c]pyridine]
≥ 80%: percent effect (mortality or growth inhibition) at 200 ppm [1]

CCS(=O)(=O)c1cc2cc(C#N)ccc2nc1-c1nc2cc(C(F)(F)F)ncc2n1C [Compound A50, 3-ethylsulfonyl-2-[3-methyl-6-(trifluoromethyl)imidazo[4,5-c]pyridin-2-yl]quinoline-6-carbonitrile]
≥ 80%: percent effect (mortality or growth inhibition) at 200 ppm [1] | percent effect (mortality or growth inhibition) at 200 ppm [2] | mortality at 200 ppm [3] | percent effect (mortality or growth inhibition) at 200 ppm [4] | mortality at 200 ppm [5] | percent effect (mortality, anti-feeding or growth inhibition) at 12.5 ppm [6] | mortality at 200 ppm [7]

CCS(=O)(=O)c1cc2nc(C)sc2cc1-c1nc2cc(C(F)(F)F)ncc2n1C [Compound A19, 5-ethylsulfonyl-2-methyl-6-[3-methyl-6-(trifluoromethyl)imidazo[4,5-c]pyridin-2-yl]-1,3-benzothiazole]
≥ 80%: percent effect (mortality or growth inhibition) at 200 ppm [2] | mortality at 24 ppm [8] | mortality at 200 ppm [3] | percent effect (mortality or growth inhibition) at 200 ppm [4] | percent effect (mortality, anti-feeding or growth inhibition) at 12.5 ppm [6] | mortality at 200 ppm [7]

CCS(=O)(=O)c1cc2c(cc1-c1nc3cc(C(F)(F)F)ncc3n1C)ncn2C (single isomer, unassigned) [Compound A12, 2-(6-ethylsulfonyl-1-methyl-benzimidazol-5-yl)-3-methyl-6-(trifluoromethyl)imidazo[4,5-c]pyridine]
≥ 80%: percent effect (mortality or growth inhibition) at 200 ppm [1] | mortality at 24 ppm [8] | percent effect (mortality or growth inhibition) at 200 ppm [4] | mortality at 200 ppm [7]

CCS(=O)(=O)c1cc2c(cc1-c1nc3cc(C(F)(F)F)ncc3n1C)nnn2C [Compound A36, 6-ethylsulfonyl-1-methyl-5-[3-methyl-6-(trifluoromethyl)imidazo[4,5-c]pyridin-2-yl]benzotriazole]
≥ 80%: percent effect (mortality or growth inhibition) at 200 ppm [1] | percent effect (mortality or growth inhibition) at 200 ppm [2] | mortality at 24 ppm [8] | percent effect (mortality or growth inhibition) at 200 ppm [4] | mortality at 200 ppm [7]

CCS(=O)(=O)c1cc2nc(C)n(C)c2cc1-c1nc2cc(C(F)(F)F)ncc2n1C (single isomer, unassigned) [Compound A14, 2-(6-ethylsulfonyl-2,3-dimethyl-benzimidazol-5-yl)-3-methyl-6-(trifluoromethyl)imidazo[4,5-c]pyridine]
≥ 80%: percent effect (mortality or growth inhibition) at 200 ppm [4] | mortality at 200 ppm [7]

CCS(=O)(=O)c1cc2nn[nH]c2cc1-c1nc2cc(C(F)(F)F)ncc2n1C [Compound A17, 2-(6-ethylsulfonyl-3H-benzotriazol-5-yl)-3-methyl-6-(trifluoromethyl)imidazo[4,5-c]pyridine]
≥ 80%: percent effect (mortality or growth inhibition) at 200 ppm [4]

CCS(=O)(=O)c1cc2ncn(C)c2cc1-c1nc2cc(C(F)(F)F)ncc2n1C (single isomer, unassigned) [Compound A11, 2-(6-ethylsulfonyl-3-methyl-benzimidazol-5-yl)-3-methyl-6-(trifluoromethyl)imidazo[4,5-c]pyridine]
≥ 80%: percent effect (mortality or growth inhibition) at 200 ppm [2] | mortality at 24 ppm [8] | percent effect (mortality or growth inhibition) at 200 ppm [4] | mortality at 200 ppm [7]

CC[S+]([O-])c1cc2ccccc2cc1-c1nc2cc(C(F)(F)F)cnc2n1C (centres unmarked) [Compound A2, 2-(3-ethylsulfinyl-2-naphthyl)-3-methyl-6-(trifluoromethyl)imidazo[4,5-b]pyridine]
≥ 80%: percent effect (mortality or growth inhibition) at 200 ppm [2] | percent effect (mortality or growth inhibition) at 200 ppm [4]

CCS(=O)(=O)c1cc2c[n+]([O-])ccc2cc1-c1nc2cc(C(F)(F)F)ncc2n1C [Compound A27, 7-ethylsulfonyl-6-[3-methyl-6-(trifluoromethyl)imidazo[4,5-c]pyridin-2-yl]-2-oxido-isoquinolin-2-ium]
≥ 80%: mortality at 24 ppm [8] | percent effect (mortality or growth inhibition) at 200 ppm [4] | mortality at 200 ppm [5] | mortality at 200 ppm [7]

CCS(=O)(=O)c1cc2[nH]c(C(F)(F)F)nc2nc1-c1nc2cc(C(F)(F)F)ncc2n1C [Compound A34, 6-ethylsulfonyl-5-[3-methyl-6-(trifluoromethyl)imidazo[4,5-c]pyridin-2-yl]-2-(trifluoromethyl)-1H-imidazo[4,5-b]pyridine]
≥ 80%: percent effect (mortality or growth inhibition) at 200 ppm [2] | mortality at 24 ppm [8] | percent effect (mortality or growth inhibition) at 200 ppm [4]

CCSc1cc2ccccc2cc1-c1nc2cc(C(F)(F)F)cnc2n1C [Compound A1, 2-(3-ethylsulfanyl-2-naphthyl)-3-methyl-6-(trifluoromethyl)imidazo[4,5-b]pyridine]
≥ 80%: percent effect (mortality or growth inhibition) at 200 ppm [2] | percent effect (mortality or growth inhibition) at 200 ppm [4]

CCS(=O)(=O)c1cc2nnn(C)c2cc1-c1nc2cc(C(F)(F)F)ncc2n1C [Compound A35, 5-ethylsulfonyl-1-methyl-6-[3-methyl-6-(trifluoromethyl)imidazo[4,5-c]pyridin-2-yl]benzotriazole]
≥ 80%: percent effect (mortality or growth inhibition) at 200 ppm [2] | mortality at 24 ppm [8] | mortality at 200 ppm [7]

CCSc1cc2cnccc2cc1-c1nc2cc(C(F)(F)F)ncc2n1C [Compound A25, 7-ethylsulfanyl-6-[3-methyl-6-(trifluoromethyl)imidazo[4,5-c]pyridin-2-yl]isoquinoline]
≥ 80%: percent effect (mortality or growth inhibition) at 200 ppm [2] | percent effect (mortality or growth inhibition) at 200 ppm [4]

CCS(=O)(=O)c1cc2nccnc2cc1-c1nc2cc(C(F)(F)F)ncc2n1C [Compound A20, 6-ethylsulfonyl-7-[3-methyl-6-(trifluoromethyl)imidazo[4,5-c]pyridin-2-yl]quinoxaline]
≥ 80%: percent effect (mortality or growth inhibition) at 200 ppm [2] | mortality at 24 ppm [8]

CCS(=O)(=O)c1cc2cnccc2cc1-c1nc2cc(C(F)(F)F)ncc2n1C [Compound A26, 7-ethylsulfonyl-6-[3-methyl-6-(trifluoromethyl)imidazo[4,5-c]pyridin-2-yl]isoquinoline]
≥ 80%: percent effect (mortality or growth inhibition) at 200 ppm [4]

CCS(=O)(=O)c1cc2ncsc2cc1-c1nc2cc(C(F)(F)F)ncc2n1C [Compound A30, 5-ethylsulfonyl-6-[3-methyl-6-(trifluoromethyl)imidazo[4,5-c]pyridin-2-yl]-1,3-benzothiazole]
≥ 80%: percent effect (mortality or growth inhibition) at 200 ppm [1] | percent effect (mortality or growth inhibition) at 200 ppm [2] | percent effect (mortality or growth inhibition) at 200 ppm [4]

CCS(=O)(=O)c1cc2c(cc1-c1nc3cc(C(F)(F)F)ncc3n1C)nc(C)n2C (single isomer, unassigned) [Compound A15, 2-(6-ethylsulfonyl-1,2-dimethyl-benzimidazol-5-yl)-3-methyl-6-(trifluoromethyl)imidazo[4,5-c]pyridine]
≥ 80%: percent effect (mortality or growth inhibition) at 200 ppm [1] | mortality at 24 ppm [8] | percent effect (mortality or growth inhibition) at 200 ppm [4] | mortality at 200 ppm [7]
